Laboratory results taken from US20210213010A1, “TLR7/8 AGONISTS AND LIPOSOME COMPOSITIONS” (Torque Therapeutics, Inc., priority 2018, published 2021).
Entries after “also recorded” stand apart in the source; their conditions may differ.

Assays:
[1] = system: RAW-Blue cells; test: NF-κB induction in RAW-Blue reporter cells (RAW 264.7 macrophages, SEAP); format: cell-based; settings: for EC50: RAW-Blue, sigmoidal 4PL fitting, 24 h
Source text: This example describes the general procedure used to assess the compounds' potency to induce NF-κB expression in RAW 264.7 macrophages cells that stably express secreted embryonic alkaline phosphatase (SEAP) upon induction of NF-κB. RAW-Blue™ reporter cells are commonly used for quantifying TLR7/8 agonist potencies in reporter cell assays. Conversely, we used RAW-Blue™ cells to evaluate the potencies of the synthesized derivatives, as previously reported^1. ^1 Ryu et al, J. Am. Chem. Soc. (2014), 136, 10823-10825
RAW 264.7 assays were carried out using RAW-Blue™ cells and QUANTI-Blue™ detection solution (Invivogen, Toulouse, France, at. #raw-sp and rep-qbs respectively). The assays carried out according to the protocol from Invivogen. RAW 264.7 macrophages were cultured in DMEM high glucose (4.5 g/L) supplemented with 10% (v/v) FBS, 1% (v/v) P/S, and Normocin™ (100 μg/ml). On the day of the study, the cells were seeded in a 96-well plate (ThermoFisher Scientific, Roskilde, Denmark) with 20 μL TLR7/8 agonist solutions per well at varying concentrations by adding 180 μL cell suspension, made by suspending cells to 0.55×10^6 cells per mL in the prepared cell medium added Zeocin™ (200 μg/ml), leading to a final concentration of 100×10^3 cells per well in triplicates. Cells were incubated with the TLR7/8 agonists, diluted from 10 mM DMSO stocks in PBS, at 37° C. with 5% CO2 for 24 h for SEAP production. 50 μL SEAP containing cell supernatant from each well was added 150 μL QUANTI-Blue™ detection solution and was incubated at 37° C. for 3-6 h. The resulting response was quantified spectrophotometrically at 640 nm and was normalized to the signal from a blank sample (DMSO dilution) run in parallel.
Half maximal effective concentration (EC50) values were determined from sigmoidal 4PL fittings from the resulting dose-response curves in GraphPad Prism.

[2] = system: whole human blood; test: IL-12p40 cytokine expression in stimulated whole human blood (ELISA); format: cell-based
Procedure: (§1) This example describes the general procedure used to assess the level of cytokine IL-6 and IL-12p40 expressions upon stimuli of whole human blood with small molecules or small molecules in liposomal formulations F1 and F2. 10 mM DMSO solutions of the small molecules were diluted in RPMI media (RPMI-1640, Sigma Aldrich) with 1% penicillin/streptomycin (p/s). […], of each dilution was transferred to Nunc™ 96-Well Polystyrene Conical Bottom MicroWell™ Plates in duplicates. Blood was drawn from two human donors, diluted in RPMI with 1% p/s and added to each well to reach final concentrations of 10 μM, 1 μM, and 0.1 μM of the small molecules. The plates were incubated at 37° C. in a cell incubator for 24h. The plates were then spun down in a plate centrifuge with 3200 revolutions per minute (rpm) for 10 min before 50 uL of the supernatant was transferred to new 96-well plates. The supernatant samples were subsequently stored at −80° C. until the day of cytokine measurements.
(§2) The level of cytokine expression was measured using either an IL-6 ELISA Kit (RnDSystems, cat #DY206) for IL-6, or an IL-12p40 ELISA Kit (RnDSystems, cat #DY1240) according to the manufacturer's protocols. This general procedure was used to generate the examples 24-33.

[3] = system: whole human blood; test: IL-6 cytokine expression in stimulated whole human blood (ELISA); format: cell-based
Procedure: as §1, §2

[4] = Remote loading efficiency of small molecules into liposomes (PD-10 size exclusion, HPLC); format: physicochemical
Procedure: A solution of the small molecule (modified TLR agonist) was lyophilized in a vial equipped with a magnetic stir bar over night to form a fluffy white powder. This powder was added either formulation F1 or F2 to the wanted drug/lipid ratio. The resulting mixture was stirred at 55° C. or 41° C. for formulation F1 and F2 respectively for 3h, then allowed to cool to rt before the solutions were refrigerated and stored at 4° C.
Remote loading efficiency was determined at 1 h and 3 h by taking out 100 μL of the mixture and applying this and 900 μL buffer (25 mM HEPES, 10 vol % sucrose buffer, pH 7.4) to a PD-10 column size exclusion column. Following, 10×1 mL fractions were collected, and the small molecule compound concentrations in the loading mixture and in the liposome containing fractions were determined on analytical HPLC. Loading efficiency was calculated as percentage of molecules found in liposome containing fractions out of the applied amount. The general procedure for the small molecule remote loading is visualized in FIG. 3. The general concept of remote loading imidazoquinolines in liposomes that are dialyzed against HEPES is visualized in FIG. 4.

[5] = remote loaded in formulation F1, HEPES, drug/lipid ratio 0.1
[6] = remote loaded in formulation F2, HEPES, drug/lipid ratio 0.1
[7] = formulation F1, HEPES, drug/lipid ratio 0.10, 1 h
[8] = formulation F1, HEPES, drug/lipid ratio 0.10, 3 h
[9] = formulation F2, HEPES, drug/lipid ratio 0.10, 1 h
[10] = formulation F2, HEPES, drug/lipid ratio 0.10, 3 h
[11] = free small molecule, 10, 1, 0.1 μM, 24 h, two donors

Structure (SMILES) | EC50 [1] | Remote loading efficiency 1 h (%) [4, 7] | Remote loading efficiency 3 h (%) [4, 8] | Remote loading efficiency 1 h (%) [4, 9] | Remote loading efficiency 3 h (%) [4, 10] | Expression of IL-12p40 upon stimulation of whole human blood [2, 5] | Expression of IL-12p40 upon stimulation of whole human blood [2, 6] | Expression of IL-6 upon stimulation of whole human blood [3, 5] | Expression of IL-6 upon stimulation of whole human blood [3, 6] | Expression of IL-12p40 upon stimulation of whole human blood [2, 11] | Expression of IL-6 upon stimulation of whole human blood [3, 11] | further results
CCOCc1nc2c(N)nc3ccccc3c2n1CCNC(=O)[C@H](C)N [MK088, (S)-2-amino-N-(2-(4-amino-2-(ethoxymethyl)-1H-imidazo[4,5-c]quinolin-1-yl)ethyl)propanamide] |  | 110% | 115% | 95% | 95% | none of the small molecules Gardiquimod, MK087, MK088, and MK089 were capable of inducing expression of IL-12p40 | capable of inducing expression of IL-12p40 in one donor at 10 μM | capable of inducing expression of IL-6 at 10 μM | capable of inducing expression of IL-6 at 10 μM; also recorded: not capable of inducing expression of IL-6 in donor 1 | induced expression of IL-12p40 at 10 μM in donor 2; also recorded: the most potent inducer of IL-12p40 | induced expression of IL-6 at 10 μM in donor 2 | 
CCOCc1nc2c(N)nc3ccccc3c2n1CCNC(=O)[C@@H](N)CC(C)C [MK091, (S)-2-amino-N-(2-(4-amino-2-(ethoxymethyl)-1H-imidazo[4,5-c]quinolin-1-yl)ethyl)-4-methylpentanamide] |  |  |  |  |  |  |  |  |  | induced expression of IL-12p40 at 10 μM in donor 2 | induced expression of IL-6 at 10 μM in donor 2 | 
CCOCc1nc2c(N)nc3ccccc3c2n1CCNC(=O)[C@@H](N)CCSC [MK093, (S)-2-amino-N-(2-(4-amino-2-(ethoxymethyl)-1H-imidazo[4,5-c]quinolin-1-yl)ethyl)-4-(methylthio)butanamide] |  |  |  |  |  |  |  |  |  | induced expression of IL-12p40 at 10 μM in donor 2 | induced expression of IL-6 at 10 μM in donor 2 | 
CCOCc1nc2c(N)nc3ccccc3c2n1CCNC(=O)[C@@H](N)C(C)C [MK089, (S)-2-amino-N-(2-(4-amino-2-(ethoxymethyl)-1H-imidazo[4,5-c]quinolin-1-yl)ethyl)-3-methylbutanamide] |  | 122% | 128% | 100% | 104% | none of the small molecules Gardiquimod, MK087, MK088, and MK089 were capable of inducing expression of IL-12p40 | capable of inducing expression of IL-12p40 in one donor at 10 μM | No induction of IL-6 expression | capable of inducing expression of IL-6 at 10 μM; also recorded: capable of inducing expression of IL-6 in both donors |  | induced expression of IL-6 at 10 μM in donor 2 | 
CCOCc1nc2c(N)nc3ccccc3c2n1CCNC(=O)C(C)(C)N [MK090, 2-amino-N-(2-(4-amino-2-(ethoxymethyl)-1H-imidazo[4,5-c]quinolin-1-yl)ethyl)-2-methylpropanamide] |  |  |  |  |  |  |  |  |  | induced expression of IL-12p40 at 10 μM in donor 2 | induced expression of IL-6 at 10 μM in donor 2; also recorded: able to induce expression of IL-6 in both donors; also recorded: the most potent inducer of IL-6 | 

Second part, led by results:

EC50 [1] | Remote loading efficiency 1 h (%) [4, 7] | Remote loading efficiency 3 h (%) [4, 8] | Remote loading efficiency 1 h (%) [4, 9] | Remote loading efficiency 3 h (%) [4, 10] | Structure (SMILES) | Expression of IL-12p40 upon stimulation of whole human blood [2, 5] | Expression of IL-12p40 upon stimulation of whole human blood [2, 6] | Expression of IL-6 upon stimulation of whole human blood [3, 5] | Expression of IL-6 upon stimulation of whole human blood [3, 6] | Expression of IL-12p40 upon stimulation of whole human blood [2, 11] | Expression of IL-6 upon stimulation of whole human blood [3, 11] | further results
0.12 µM |  |  |  |  | CCCCc1nc2c(N)nc3ccccc3c2n1Cc1ccc(CNC(C)=O)cc1 [MK132, N-(4-((4-amino-2-butyl-1H-imidazo[4,5-c]quinolin-1-yl)methyl)benzyl)acetamide] |  |  |  |  |  |  | 
 | 72% | 73% | 52% | 60% | CCOCc1nc2c(N)nc3ccccc3c2n1CCNC(=O)CN [MK087, 2-amino-N-(2-(4-amino-2-(ethoxymethyl)-1H-imidazo[4,5-c]quinolin-1-yl)ethyl)acetamide] | none of the small molecules Gardiquimod, MK087, MK088, and MK089 were capable of inducing expression of IL-12p40 | not capable of inducing expression of IL-12p40 | capable of inducing expression of IL-6 at 10 μM | capable of inducing expression of IL-6 at 10 μM; also recorded: not capable of inducing expression of IL-6 in donor 1 |  |  | 
0.05 µM |  |  |  |  | CCCCc1nc2c(N)nc3ccccc3c2n1Cc1ccc(CNC(=O)CC)cc1 [MK148, N-(4-((4-amino-2-butyl-1H-imidazo[4,5-c]quinolin-1-yl)methyl)benzyl)propionamide] |  |  |  |  |  |  | Potency in the RAW-Blue cell assay ([1]; compared with R848): greater potencies than R848
0.13 µM |  |  |  |  | CCCCc1nc2c(N)nc3ccccc3c2n1Cc1ccc(CNC(=O)[C@@H](N)Cc2ccc(O)cc2)cc1 [MK141, (S)-2-amino-N-(4-((4-amino-2-butyl-1H-imidazo[4,5-c]quinolin-1-yl)methyl)benzyl)-3-(4-hydroxyphenyl)propanamide] |  |  |  |  |  |  | Remote loading efficiency 1 h (%) ([4]; formulation F3, drug/lipid ratio 0.10, 1 h, mean (SD), n = 2): 83.8 (3.0) %; Remote loading efficiency 3 h (%) ([4]; formulation F3, drug/lipid ratio 0.10, 3 h, mean (SD), n = 2): 81.2 (2.1) %
